Assay [1] has as its system Acinetobacter baumannii. In words: Antimicrobial activity against Acinetobacter baumannii isolate 853 by microdilution method. It counts as functional.
Assay [2] relates to Acinetobacter baumannii. Description: Antimicrobial activity against Acinetobacter baumannii assessed as susceptible isolates by microdilution method. The class given is functional. On the technique in general: In broth dilution the organism is exposed to a series of concentrations in liquid medium.
Assay [3] relates to Acinetobacter baumannii. In words: Bactericidal activity against Acinetobacter baumannii isolate 1198 at 16 ug/ml after 24 hrs by time kill analysis. The class given is functional, organism-based.
Assay [4] deals with Acinetobacter baumannii. Description: Antimicrobial activity against Acinetobacter baumannii by microdilution method. It counts as functional.
Assay [5] has as its system Acinetobacter baumannii. Description: Antimicrobial activity against Acinetobacter baumannii isolate 1198 by microdilution method. The class given is functional.
Assay [6] relates to Acinetobacter baumannii. In words: Antimicrobial activity against Acinetobacter baumannii isolate 1826 by microdilution method. It counts as functional.
Assay [7] concerns Acinetobacter baumannii. In words: Antimicrobial activity against Acinetobacter baumannii by microdilution method in presence of beta-lactamase inhibitor Sulbactam. It counts as functional.
Assay [8] has as its system Acinetobacter baumannii. In words: Antimicrobial activity against Acinetobacter baumannii by microdilution method in presence of beta-lactamase inhibitor Tazobactam. The class given is functional.
Assay [9] has as its system Acinetobacter baumannii. In words: Bactericidal activity against Acinetobacter baumannii isolate 1826 at 2 ug/ml after 4 hrs by time kill analysis. It counts as functional, organism-based.
Assay [10] relates to Acinetobacter baumannii. Description: Bactericidal activity against Acinetobacter baumannii isolate 1198 at 2 ug/ml after 24 hrs by time kill analysis. It counts as functional, organism-based.
Assay [11] deals with Acinetobacter baumannii. In words: Bactericidal activity against Acinetobacter baumannii isolate 1826 at 2 ug/ml up to 4 hrs by time kill analysis. The class given is functional, organism-based.
The test system of assay [12] is Acinetobacter baumannii. In words: Bactericidal activity against Acinetobacter baumannii isolate 853 at 0.06 ug/ml at 6 hrs by time kill analysis. It counts as functional, organism-based.
Assay [13] has as its system Acinetobacter baumannii. Description: Bactericidal activity against Acinetobacter baumannii isolate 1826 at 8 ug/ml up to 4 hrs by time kill analysis. The class given is functional, organism-based.
The subject of assay [14] is Acinetobacter baumannii. Description: Bactericidal activity against Acinetobacter baumannii isolate 1198 at 1 ug/ml after 24 hrs by time kill analysis. The class given is functional, organism-based.
Assay [15] relates to Acinetobacter baumannii. In words: Bactericidal activity against Acinetobacter baumannii isolate 1826 at 8 ug/ml after 4 hrs by time kill analysis. It counts as functional, organism-based.
Assay [16] has as its system Acinetobacter baumannii. In words: Bactericidal activity against Acinetobacter baumannii isolate 853 at 0.5 ug/ml at 6 hrs by time kill analysis. It counts as functional, organism-based.

In brackets after ≈: the same amount, converted by molar mass. Activity calls are given as the source filed them. No cut-off for these calls is given here.

Take `NCC[C@H](O)C(=O)N[C@@H]1C[C@H](N)[C@@H](O[C@H]2O[C@H](CN)[C@@H](O)[C@H](O)[C@H]2O)[C@H](O)[C@H]1O[C@H]1O[C@H](CO)[C@@H](O)[C@H](N)[C@H]1O` [AMIKACIN]: the MIC (commonly the lowest concentration found to suppress growth) was not above 0.5 µg/mL in assay [1], more than 128 µg/mL in assay [5] and 2 µg/mL (≈ 3.42 µM) in assay [6]. For the same molecule, in assay [2], the Activity worked out at 53%. For the same molecule, the outcome in assay [3] was inactive. Further, the MIC50 – broadly, an inhibitory concentration at the 50% level, which refers to growth in some studies and to a panel of isolates in others – in [4] was 8 µg/mL (≈ 13.7 µM). In assay [4], the MIC90 (in general, the lowest concentration that inhibits either 90% of growth or 90% of the strains tested, depending on the study) was more than 128 µg/mL.
On to `CC1(C)S[C@@H]2[C@H](NC(=O)[C@H](N)c3ccccc3)C(=O)N2[C@H]1C(=O)O` [AMPICILLIN], for which the Activity in [2] was 31%. Also, in [7], the MIC50 worked out at 16 µg/mL and the MIC90 amounted to 128 µg/mL.
As for `CC(C)(O/N=C(\C(=O)N[C@@H]1C(=O)N2C(C(=O)[O-])=C(C[n+]3ccccc3)CS[C@H]12)c1csc(N)n1)C(=O)O` [CEFTAZIDIME], the Activity in assay [2] came to 17%. Besides, in assay [4], the MIC50 stood at 64 µg/mL (≈ 117 µM) and the MIC90 was more than 64 µg/mL.
As to `C[C@@H](O)[C@H]1C(=O)N2C(C(=O)O)=C(SCCNC=N)C[C@H]12` [IMIPENEM ANHYDROUS], the Activity in assay [2] was 86%. Further, in [4], the MIC50 came out at 1 µg/mL (≈ 3.34 µM) and the MIC90 came out at 16 µg/mL (≈ 53.4 µM).
For `C[C@H]1COc2c(N3CCN(C)CC3)c(F)cc3c(=O)c(C(=O)O)cn1c23.C[C@H]1COc2c(N3CCN(C)CC3)c(F)cc3c(=O)c(C(=O)O)cn1c23.O` [LEVOFLOXACIN], in that order: 35%, 8 µg/mL and 16 µg/mL.
The corresponding values for `CN(C)c1ccc(O)c2c1C[C@H]1C[C@H]3[C@H](N(C)C)C(O)=C(C(N)=O)C(=O)[C@@]3(O)C(O)=C1C2=O` [MINOCYCLINE] are 78%, 2 µg/mL (≈ 4.37 µM) and 8 µg/mL (≈ 17.5 µM).
As for `CCN1CCN(C(=O)N[C@@H](C(=O)N[C@@H]2C(=O)N3[C@@H]2SC(C)(C)[C@@H]3C(=O)O)c2ccccc2)C(=O)C1=O` [PIPERACILLIN], in assay [2], the Activity amounted to 9%. In addition, in assay [8], the MIC50 is more than 128 µg/mL and the MIC90 is more than 128 µg/mL.
Take `CN(C)c1cc(NC(=O)CNC(C)(C)C)c(O)c2c1C[C@H]1C[C@H]3[C@H](N(C)C)C(O)=C(C(N)=O)C(=O)[C@@]3(O)C(O)=C1C2=O` [TIGECYCLINE]: the outcome in [9], in assay [10], in assay [12], in [14] and in assay [15] was inactive. Moreover, the MIC in assay [1] turned out to be 0.12 µg/mL (≈ 0.205 µM); in assay [4] it was 0.06 µg/mL (≈ 0.102 µM); in [5] it was 4 µg/mL (≈ 6.83 µM); in [6], 64 µg/mL (≈ 109 µM). The result in assay [11] and in [13] was Active.
Turning to GENTAMICIN, in [2], the Activity turned out to be 16%. In assay [4], this molecule displayed an MIC50 of more than 32 µg/mL and an MIC90 of more than 32 µg/mL.
With POLYMYXIN B, the MIC in assay [1] was 1 µg/mL; in assay [5], 1 µg/mL; in assay [6], 2 µg/mL. For the same molecule, the Activity in assay [2] turned out to be 99%. This molecule gave an MIC50 in [4] of 1 µg/mL. In [4], this molecule came in with an MIC90 of 2 µg/mL. Further, the result in assay [16] was inactive.
